Results: patent US20210128596A1, “COMPOSITIONS AND METHODS FOR TREATING SEPTIC CARDIOMYOPATHY” (UNIVERSITY OF PENNSYLVANIA, priority 2017, published 2021)
“Also recorded” adds a separate entry of the source.

Key:
[1] = test system: cardiac tissue isolated from septic mice; experiment: Autophagy markers (LC3BII/LC3BI, Map1lc3b, BNIP3) in cardiac tissue; type: in vivo, mouse
Description: (§1) RNA purification and gene expression analysis—Total RNA was purified from AC16 cells or hearts using the TRIzol reagent according to the instructions of the manufacturer (Invitrogen). DNase-treated RNA was used for cDNA synthesis using the ProtoScript II First Strand cDNA Synthesis Kit (New England Biolabs). Quantitative real-time PCR was performed with the Sybr Select Master Mix (Applied Biosystems). Incorporation of the SYBR green dye into the PCR products was monitored with the Applied Biosystems StepOnePlus Real-Time PCR System. Samples were normalized against mouse 36B4 or human rps13 RNA.
(§2) Protein purification and analysis—Isolated heart tissue or AC16 cells were homogenized in radioimmune precipitation assay buffer containing protease and phosphatase inhibitors (Pierce Protease and Phosphatase Inhibitor Mini Tablets, Thermo Scientific). 30-50 μg of total protein extract was applied to SDS-PAGE and transferred onto nitrocellulose membranes.

MCU and MICU1 = MCU and MICU1 expression in heart tissue of CLP mice; type: in vivo, mouse
Description: Mice were either sham treated (n=3) or subjected to cecal ligation puncture (CLP, n=6). SDG was administered to three mice following CLP.
as §1, §2

COc1cc(C[C@@H](CO[C@@H]2O[C@H](CO)[C@@H](O)[C@H](O)[C@H]2O)[C@H](CO[C@@H]2O[C@H](CO)[C@@H](O)[C@H](O)[C@H]2O)Cc2ccc(O)c(OC)c2)ccc1O [LGM2605, secoisolariciresinol diglucoside]
autophagy markers (LC3BII/LC3BI ratio; Map1lc3b and BNIP3 mRNA) ([1]; cardiac tissue from septic mice): Neither marker was alleviated by LGM2605
expression of the mitochondrial damage marker BNIP3 ([1]; septic mice following LGM2605 administration): trend for reduced expression of the mitochondrial damage marker BNIP3
MCU protein level (western blot) (MCU and MICU1; heart tissue, SDG following CLP, listed as SDG): increases MCU protein level; also recorded: increased protein expression of the mitochondrial calcium uniporter
MCU and MICU1 mRNA and protein expression (MCU and MICU1; ventricular tissue 12 hours post-CLP, LGM2605 6 hrs post-CLP): did not affect expression of these proteins
